Results taken from patent US8802705B2, “Pharmaceutical containing PPAR delta agonist” (Senju Pharmaceutical Co., Ltd., priority 2007, dated 2014).

Tested on: monkey meibomian gland epithelial cells
Assay: Effect on cell number increase in meibomian gland epithelial cells (Experimental Example 3, Cell Counting Kit-8)
Assay type: cell-based
Details: medium renewed every 48 hr (3 x 48 hr), relative to non-addition group = 100%, mean ± SD, N = 5 or 10
Description: An eyelid of monkey isolated and stored in D-PBS was transferred to a clean bench, and cell preparation was aseptically performed as follows.
The isolated eyelid was immersed in 80% ethanol for 30 sec, washed three times with D-PBS added with 1% penicillin-streptomycin (Invitrogen), and transferred to a minimum essential medium (MEM; Invitrogen). The adipose tissue and muscular tissue surrounding the meibomian glandular tissue of the eyelid were removed under a stereomicroscope. They were transferred to MEM containing 0.3 U/mL collagenase A (Roche Diagnostics) and 2.4 U/mL dispase II (Roche Diagnostics), and shaken at 37° C. for 4 hr and at 4° C. overnight. The enzyme-treated tissue was set under a stereomicroscope, and the eyelash and eyelid connective tissue were removed to isolate the meibomian glandular tissue. Trypsin-EDTA (4 mL, Invitrogen) was added to the isolated glandular tissue, and the mixture was incubated at 37° C. for 10 min. After incubation, MEM (5 mL) containing 10% FBS (Invitrogen) was added thereto to stop the enzyme reaction, and the tissue constituting cells were dispersed by repeated suction and discharge of the mixture 5 times using an injection syringe equipped with a 21 G injection needle. The cell dispersion was passed through 100 μm and 40 μm nylon filters (Cell Strainer; Falcon), and cell mass and the like contained therein which could not be treated with the enzyme were removed. The cell suspension passed through the filters was collected in a centrifuge tube (50 mL) and centrifuged at room temperature, 1,500 rpm for 5 min. To the cell layers containing the object cells obtained by the centrifugation was added 80 μL of D-PBS containing 0.5% bovine serum albumin (BSA; Sigma-Aldrich), and the cells were sufficiently suspended therein. Anti-Fibroblast Microbeads (Militenyi Biotec, 20 μL) was added thereto, and the mixture was left standing at room temperature for 30 min. After completion of the reaction with an antibody, 2 mL of D-PBS containing 0.5% BSA was added thereto, and the mixture was centrifuged again at room temperature, 1,500 rpm for 5 min. To the cell layers containing the object cells obtained by the centrifugation was added 1 mL of D-PBS containing 0.5% BSA, and the cells were sufficiently suspended therein. The suspension was added dropwise to LD column (Militenyi Biotec) equilibrated in advance with a column washing solution (D-PBS containing 2 mM EDTA (DOJINDO LABORATORIES) and 0.5% BSA). Then, 2 mL of the column washing solution was added dropwise to the LD column. […] The cells collected in the centrifuge tube were centrifuged at room temperature, 1,500 rpm for 5 min, and the supernatant was removed. The sediment was suspended in Defined Keratinocyte Serum Free Medium (5 mL), centrifuged at room temperature, 1,500 rpm for 5 min, and removed the supernatant. Again, the residue was suspended in DK-SFM (3 mL), centrifuged at room temperature and 1,500 rpm for 5 min, and the supernatant was removed. The cells were suspended in DK-SFM (2 mL), and seeded on a 6 well multi-well plate for cell culture, which had been treated with collagen. The seeded cells were cultured in Defined keratinocyte-Serum Free Medium (DK-SFM; Invitrogen, attached Supplement was added as instructed in the preparation protocol), cultured in an incubator (SANYO) set to 37° C., 5% CO2, 95% air, 100% humidity, and the culture medium was exchanged with a new one every 48 hr until the cells became subconfluent.
As a test substance, compound A, [4-[3-[2-(4-trifluoromethyl)phenyl-4-isopropyl-5-thiazolyl]propionyl]-2-methylphenoxy]acetic acid (hereinafter to be referred to as compound B) or [4-[3-[2-(2-hydroxy-4-chlorophenyl)-5-isopropyl-4-oxazolyl]propionyl]-2-methylphenoxy]acetic acid (hereinafter to be referred to as compound C) was used. […]

Structure (SMILES): Cc1cc2c(CCc3sc(-c4ccc(C(F)(F)F)cc4)nc3C(C)C)noc2cc1OCC(=O)O [compound A, [3-[2-[4-isopropyl-2-(4-trifluoromethyl)phenyl-5-thiazolyl]ethyl]-5-methyl-1,2-benzisoxazol-6-yl]oxyacetic acid]
- cell number increase ratio (10^−6 M): 189.8 ± 13.1%
- cell number increase ratio (10^−7 M): 177.1 ± 9.7%
- cell number increase ratio (10^−8 M): 175.3 ± 9.0%
